Test results taken from patent US8481519B2 (LTS Lohmann Therapie-Systeme AG, priority 2005, dated 2013).

What was measured:
[1] = target: T1, human androgen receptor (hAR) (Homo sapiens, UniProt P10275); assay: androgen receptor-dependent MMTV-luc reporter gene assay (luciferase assay) in transfected CV1 cells; format: cell-based; conditions: for antiandrogenic effect of atraric acid derivatives and structurally similar compounds: FIGS. 6 and 7, concentration not given (FIG. 6: 10^−6 M); for inactivation of androgen receptor-mediated transactivation: 1 μM concentration; for inhibition of androgen receptor-mediated transactivation: 10 μM concentration, FIG. 7
T1 construct: expressed in transfected cells; host or cells: CV1 monkey kidney cells, which lack endogenous androgen receptor
T1 sequence (P10275 1-920): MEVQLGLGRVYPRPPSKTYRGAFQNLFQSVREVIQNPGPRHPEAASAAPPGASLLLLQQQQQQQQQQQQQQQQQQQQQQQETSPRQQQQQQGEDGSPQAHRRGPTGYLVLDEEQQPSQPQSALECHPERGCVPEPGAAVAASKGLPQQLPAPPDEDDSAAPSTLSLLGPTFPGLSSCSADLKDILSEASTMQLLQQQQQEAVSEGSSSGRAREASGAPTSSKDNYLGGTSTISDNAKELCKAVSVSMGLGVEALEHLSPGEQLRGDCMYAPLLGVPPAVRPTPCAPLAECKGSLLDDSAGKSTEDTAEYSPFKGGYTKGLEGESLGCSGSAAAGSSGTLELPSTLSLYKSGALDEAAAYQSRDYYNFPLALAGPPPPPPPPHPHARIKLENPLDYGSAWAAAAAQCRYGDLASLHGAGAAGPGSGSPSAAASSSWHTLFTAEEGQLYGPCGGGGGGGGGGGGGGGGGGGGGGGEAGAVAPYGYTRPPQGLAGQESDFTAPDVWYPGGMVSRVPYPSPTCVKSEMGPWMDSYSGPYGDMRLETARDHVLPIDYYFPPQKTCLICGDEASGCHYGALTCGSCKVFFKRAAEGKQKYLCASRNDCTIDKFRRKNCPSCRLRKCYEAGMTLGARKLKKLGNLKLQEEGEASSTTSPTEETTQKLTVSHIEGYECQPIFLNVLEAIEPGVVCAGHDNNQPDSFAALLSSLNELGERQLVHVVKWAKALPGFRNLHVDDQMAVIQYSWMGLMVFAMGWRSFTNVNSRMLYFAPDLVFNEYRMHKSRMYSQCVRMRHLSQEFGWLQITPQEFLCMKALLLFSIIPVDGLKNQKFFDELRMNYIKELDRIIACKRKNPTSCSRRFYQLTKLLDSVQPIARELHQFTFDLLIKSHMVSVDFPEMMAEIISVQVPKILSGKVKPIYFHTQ
Description: The potentially antiandrogenic efficacy of the extracts obtained was examined with the androgen receptor-dependent MMTV-luc reporter gene assay, in the following designated as luciferase assay.
In that assay, the enzyme luciferase serves as a reporter gene. Luciferase is an oxidoreductase from the North American firefly Photinus pyralis, which […] the substrate luciferin in the presence of aerial oxygen, ATP and Mg^2+ ions, to oxyluciferin. The energy emitted in the process is emitted as light.
The reporter gene luciferase is located on the plasmid pMMTV-luc (MMTV=Mouse mammary tumour virus), on which is also located the androgen-responsive element (ARE). The plasmid pMMTV-luc is transfected, together with the androgen receptor expression vector, into fibroblasts of the monkey kidney. If an androgen is added thereto, this androgen will bind, in a complex with the androgen receptor, to the androgen-responsive element. This process then initiates the transcription of the following gene, namely that of the luciferase reporter gene. The amount of the expressed luciferase is directly proportional to the amount of light released when adding luciferin, and the amount of light can be quantified by measuring the emission at λ=562 nm. If apart from the androgen there is also an antiandrogenic substance or an antiandrogenic extract, the transactivation of the luciferase reporter gene by the androgen-responsive element is inhibited and later, when the substrate is added, a correspondingly smaller amount of light energy is released.
The extracts were then examined at two concentrations (300 μg/ml and 600 μg/ml) for their antiandrogenic bioactivity using the luciferase assay.
Monkey kidney cells, line CV1, lacking endogenous androgen receptor, were cultured in Dulbecco's modified Eagle's medium (DMEM), supplemented with 10% (v/v) fetal calf serum, penicillin (100 IU/ml) and streptomycin (100 IU/ml), at 37° C. and 5% CO2.
For the transfection experiments, the cells were seeded onto 6-well cell culture plates (Nunc, Roskilde, Denmark) with a density of 1.2×10^5 cells per well, and grown in DMEM medium supplemented with 10% (v/v) dextran-coated activated charcoal stripped serum. Six hours after seeding, the cells were transfected by using the Ca3(PO4)2 method. The human androgen receptor (hAR) expression vector (0.2 μg) was cotransfected with 1 μg of the reporter plasmid MMTV-luc and 0.2 μg of the cytomegalovirus (CMV)-driven β-galactosidase expression virus, as internal control for transfection efficiency. After 14 hours, the medium was replaced either without (white bars in FIGS. 1 to 3) or with the addition of methyltrienolone (R1881, 3×10^−10 M final concentration; black bars in FIGS. 1 to 3) together with the indicated extracts (FIG. 1), fractions of the methylene chloride extract (FIG. 2) or individual isolated compounds (FIG. 3). After an additional 48 hours, cells were harvested and assayed for luciferase and β-galactosidase activity.
Luciferase activity was determined by injecting luciferin and measuring light emission at 562 nm and expressed as relative light units (RLU) by using the values […] β-galactosidase activity for normalisation of the luciferase activity. All transfection assays shown were performed in duplicate and were repeated at least twice.
For determining antiandrogenic activity in the various extracts from the bark of P. africana, the extracts were used at a concentration of 300 μg/ml.
For determining the antiandrogenic activity in the fractions of the selective methylene chloride extracts, 2 μl of the respective fraction was used, corresponding to a final concentration of 30 μg/ml. Fractions 6 to F10 were additionally tested with 4 μl, corresponding to 60 μg/ml final concentration.

[2] = tested on: human prostate carcinoma cells (cell line LNCaP); assay: LNCaP cell growth assay; format: cell-based; conditions: FIG. 4; for growth of LNCaP cells: atraric acid 10 μM, OH—F 0.1 μM
Procedure: The growth of prostate cells and prostate cancer cells is originally dependent on androgens.
Human prostate carcinoma cells (cell line LNCaP) were cultured in RPMI-1640 medium that was supplemented with 10% (v/v) fetal calf serum, penicillin (100 IU/ml) and streptomycin (100 IU/ml), 2 mM glutamine and 1 mM sodium pyruvate.
For the cell growth assays, LNCaP cells were seeded onto a 24-well cell culture plate at a density of 5×10^3 cells per well and cultured in RPMI-1640 medium containing 5% fetal calf serum. […] Every second day the medium was replaced with fresh medium together with freshly added compounds. The cells were trypsinized and counted using a counting cell chamber on the indicated days.

[3] = tested on: pathologically altered androgen receptor; conditions: background, prior work; cited from earlier work
human ERα = target: T2, human ERα (Homo sapiens, UniProt P03372); assay: p2ERE-TATA-luc reporter gene assay in CV1 cells transfected with ERα; format: cell-based; conditions: FIG. 9
T2 construct: expressed in transfected cells; host or cells: CV1 cells
T2 sequence (P03372 whole entry): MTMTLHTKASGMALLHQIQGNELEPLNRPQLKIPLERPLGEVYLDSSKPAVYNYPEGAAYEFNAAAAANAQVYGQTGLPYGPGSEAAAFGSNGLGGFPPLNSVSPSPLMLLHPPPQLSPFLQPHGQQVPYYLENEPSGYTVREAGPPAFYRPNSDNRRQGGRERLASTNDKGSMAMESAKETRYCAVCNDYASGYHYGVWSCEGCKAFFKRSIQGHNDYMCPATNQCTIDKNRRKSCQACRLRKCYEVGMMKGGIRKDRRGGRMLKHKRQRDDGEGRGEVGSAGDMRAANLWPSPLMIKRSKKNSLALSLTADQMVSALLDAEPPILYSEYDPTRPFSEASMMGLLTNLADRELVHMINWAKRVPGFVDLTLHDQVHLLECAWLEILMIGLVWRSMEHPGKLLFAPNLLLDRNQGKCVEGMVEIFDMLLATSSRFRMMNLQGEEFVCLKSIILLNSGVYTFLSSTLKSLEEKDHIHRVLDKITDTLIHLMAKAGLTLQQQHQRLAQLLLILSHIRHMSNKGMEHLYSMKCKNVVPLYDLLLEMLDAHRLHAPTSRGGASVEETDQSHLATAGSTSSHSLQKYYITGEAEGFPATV
Procedure: (§1) After seven days, the cells were seeded in 6-well plates (Nunc, Roskilde, Denmark) at a density of 1.5×10^5 cells per well. After 24 hours, the cells were transfected according to the calcium phosphate method with 2 μg of the reporter gene-encoding expression plasmid, 0.2 μg of the ERα-encoding or ERβ-encoding expression plasmid and, for reasons of normalisation, 0.2 μg of the cytomegalovirus-derived β-galactosidase. […] After 48 hours, the cells were harvested and assayed for luciferase and β-galactosidase activity. All transfection assays were performed in duplicate and were repeated at least twice.

human ERβ = target: T3, human ERβ (Homo sapiens, UniProt Q92731); assay: p2ERE-TATA-luc reporter gene assay in CV1 cells transfected with ERβ; format: cell-based; conditions: FIG. 8
T3 construct: expressed in transfected cells; host or cells: CV1 cells
T3 sequence (Q92731 whole entry): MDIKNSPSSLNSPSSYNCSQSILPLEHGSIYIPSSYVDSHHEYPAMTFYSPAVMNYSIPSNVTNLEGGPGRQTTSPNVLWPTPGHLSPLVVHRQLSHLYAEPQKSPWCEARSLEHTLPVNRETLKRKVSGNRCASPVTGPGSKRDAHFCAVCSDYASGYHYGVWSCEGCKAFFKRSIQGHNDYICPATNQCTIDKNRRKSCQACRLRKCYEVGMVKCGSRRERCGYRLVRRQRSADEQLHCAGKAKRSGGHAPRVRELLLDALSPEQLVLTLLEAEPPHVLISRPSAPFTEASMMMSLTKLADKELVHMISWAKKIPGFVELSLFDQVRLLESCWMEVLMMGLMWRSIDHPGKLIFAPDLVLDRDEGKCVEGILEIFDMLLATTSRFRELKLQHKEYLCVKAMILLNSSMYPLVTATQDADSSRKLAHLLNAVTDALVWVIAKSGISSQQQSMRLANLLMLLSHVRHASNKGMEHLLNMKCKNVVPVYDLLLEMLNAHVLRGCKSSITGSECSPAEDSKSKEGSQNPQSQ
Procedure: as §1

[4] = no estradiol present, 10 μM or 100 μM

## COC(=O)c1c(C)c(Br)c(O)c(Br)c1O [R1, methyl-3,5-dibromo-2,4-dihydroxy-6-methylbenzoate]
[1]
  antiandrogenic effect of atraric acid derivatives and structurally similar compounds: loss of anti androgenic activity

## COC(=O)c1c(O)c(C)cc(C)c1O [R5, methyl-2,6-dihydroxy-3,5-dimethylbenzoate]
[1]
  antiandrogenic effect of atraric acid derivatives and structurally similar compounds: loss of antiandrogenic activity

## CC(C)(O)C(=O)Nc1ccc([N+](=O)[O-])c(C(F)(F)F)c1 [OH—F, hydroxyflutamide, reference compound]
[2]
  growth of LNCaP cells: did not lead to any reduction in growth

## C[C@]12CC[C@H]3[C@@H](CCC4=CC(=O)CC[C@@]43C)[C@@H]1CC[C@@H]2O [testosterone]
[3]
  inclusions in cells expressing a pathologically altered androgen receptor: characteristic inclusions in the cytoplasm

## Cc1cc(O)c(C)c(O)c1C(=O)O [R6, 2,4-dihydroxy-3,6-dimethylbenzoic acid]
[1]
  antiandrogenic effect of atraric acid derivatives and structurally similar compounds: abrogates the antiandrogenic activity

## Cc1cc(O)c(C)c(O)c1C(=O)OCCNS(=O)(=O)c1ccccc1 [A4, 2-[(phenylsulfonyl)amino]ethyl-2,4-dihydroxy-3,6-dimethylbenzoate]
[1]
  antiandrogenic effect of atraric acid derivatives and structurally similar compounds: no antiandrogenic effect

## COC(=O)c1ccc(O)c(C)c1O [R4, methyl-2,4-dihydroxy-3-methylbenzoate]
[1]
  inactivation of androgen receptor-mediated transactivation: still able to inactivate
  inhibition of androgen receptor-mediated transactivation: nearly completely inhibiting

## CC(C)=CCC/C(C)=C/COC(=O)c1cc(C)c(O)c(C)c1O [A5, (2E)-3,7-dimethylocta-2,6-dien-1-yl-2,4-dihydroxy-3,5-dimethylbenzoate]
[1]
  antiandrogenic effect of atraric acid derivatives and structurally similar compounds: did not lead to an antiandrogenically active molecule

## CC(=O)[C@@]1(O)CC[C@H]2[C@@H]3C=C(Cl)C4=CC(=O)[C@@H]5C[C@@H]5[C@]4(C)[C@H]3CC[C@@]21C [cyproterone]
[3]
  inclusions in cells expressing a pathologically altered androgen receptor: only a small number of inclusions

## Cc1cc(C(=O)OC(C)C)c(O)c(C)c1O [A6, isopropyl-2,4-dihydroxy-3,5-dimethylbenzoate]
[1]
  inactivation of androgen receptor-mediated transactivation: still able to inactivate
  inhibition of androgen receptor-mediated transactivation: nearly completely inhibiting

## COC(=O)c1c(C)cc(O)c(C)c1O [atraric acid, methyl-2,4-dihydroxy-3,6-dimethylbenzoate]
Human ERα; [4]
  estrogen-responsive expression of the reporter gene (ERα agonism): activated in a dose-dependent manner
Human ERα; with estradiol
  hormone-mediated transactivation of ERα: not affected
[2]; 10 μM, 8th day of treatment
  growth of LNCaP cells versus untreated cells: clearly slower
[2]
  growth of LNCaP cells: reduced growth
Human ERβ; [4]
  estrogen-responsive expression of the reporter gene (ERβ agonism): activated in a dose-dependent manner
Human ERβ; with estradiol
  hormone-mediated transactivation of ERβ: not affected
